Results on eight compounds are retold here after PubChem BioAssay AID1259407 (Chemical Carcinogenesis Research Information System (CCRIS), 2018).

This series relates to CCRIS mutagenicity, Ames/micronucleus/aberration tests. The series can be described thus: CCRIS mutagenicity studies.
Setting [1] is: Test System: AMES SALMONELLA TYPHIMURIUM, Strain/Indicator: TA100, Metabolic Activation: HAMSTER, LIVER, S-9, AROCLOR 1254 (10%), Method: PREINCUBATION
Setting [2] is: Test System: AMES SALMONELLA TYPHIMURIUM, Strain/Indicator: TA100, Metabolic Activation: NONE, Method: PREINCUBATION
Where [3] appears, read: Test System: AMES SALMONELLA TYPHIMURIUM, Strain/Indicator: TA100, Metabolic Activation: RAT, LIVER, S-9, AROCLOR 1254 (10%), Method: PREINCUBATION
The mark [4] stands for this setting: Test System: AMES SALMONELLA TYPHIMURIUM, Strain/Indicator: TA1535, Metabolic Activation: HAMSTER, LIVER, S-9, AROCLOR 1254 (10%), Method: PREINCUBATION
The mark [5] stands for this setting: Test System: AMES SALMONELLA TYPHIMURIUM, Strain/Indicator: TA1535, Metabolic Activation: NONE, Method: PREINCUBATION
The mark [6] stands for this setting: Test System: AMES SALMONELLA TYPHIMURIUM, Strain/Indicator: TA1535, Metabolic Activation: RAT, LIVER, S-9, AROCLOR 1254 (10%), Method: PREINCUBATION
Setting [7] is: Test System: AMES SALMONELLA TYPHIMURIUM, Strain/Indicator: TA98, Metabolic Activation: NONE, Method: STANDARD PLATE.
[8] abbreviates: Test System: AMES SALMONELLA TYPHIMURIUM, Strain/Indicator: TA98, Metabolic Activation: RAT, LIVER, S-9, AROCLOR 1254, Method: STANDARD PLATE.
Setting [9] is: Test System: AMES SALMONELLA TYPHIMURIUM, Strain/Indicator: TA100, Metabolic Activation: NONE, Method: STANDARD PLATE.
The mark [10] stands for this setting: Test System: AMES SALMONELLA TYPHIMURIUM, Strain/Indicator: TA100, Metabolic Activation: RAT, LIVER, S-9, AROCLOR 1254, Method: STANDARD PLATE.
[11] abbreviates: Test System: AMES SALMONELLA TYPHIMURIUM, Strain/Indicator: TA1535, Metabolic Activation: NONE, Method: STANDARD PLATE.
[12] abbreviates: Test System: AMES SALMONELLA TYPHIMURIUM, Strain/Indicator: TA1538, Metabolic Activation: NONE, Method: STANDARD PLATE.
[13] abbreviates: Test System: AMES SALMONELLA TYPHIMURIUM, Strain/Indicator: TA1538, Metabolic Activation: RAT, LIVER, S-9, AROCLOR 1254, Method: STANDARD PLATE.

Each structure is given as a SMILES string. Activity calls are given as the source filed them. How the calls were made is not given here.

Take `C=C[Si](OCC)(OCC)OCC`: the mutagenic call runs as follows: (Test System: AMES SALMONELLA TYPHIMURIUM, Strain/Indicator: TA98, Metabolic Activation: HAMSTER, LIVER, S-9, AROCLOR 1254 (10%), Method: PREINCUBATION) “inactive; negative”; (Test System: AMES SALMONELLA TYPHIMURIUM, Strain/Indicator: TA98, Metabolic Activation: NONE, Method: PREINCUBATION) “inactive; negative”; (Test System: AMES SALMONELLA TYPHIMURIUM, Strain/Indicator: TA98, Metabolic Activation: RAT, LIVER, S-9, AROCLOR 1254 (10%), Method: PREINCUBATION) “inactive; negative”; under setting [1], “inactive; negative”; under setting [2], “inactive; negative”; under setting [3], “inactive; negative”. The mutagenic call is, setting by setting: under setting [4], “inactive; negative”; under setting [5], “inactive; negative”; under setting [6], “inactive; negative”; (Test System: AMES SALMONELLA TYPHIMURIUM, Strain/Indicator: TA1537, Metabolic Activation: HAMSTER, LIVER, S-9, AROCLOR 1254 (10%), Method: PREINCUBATION) “inactive; negative”; (Test System: AMES SALMONELLA TYPHIMURIUM, Strain/Indicator: TA1537, Metabolic Activation: NONE, Method: PREINCUBATION) “inactive; negative”; (Test System: AMES SALMONELLA TYPHIMURIUM, Strain/Indicator: TA1537, Metabolic Activation: RAT, LIVER, S-9, AROCLOR 1254 (10%), Method: PREINCUBATION) “inactive; negative”. Further, the mutagenic call reads like this: (Test System: AMES SALMONELLA TYPHIMURIUM, Strain/Indicator: TA1538, Metabolic Activation: HAMSTER, LIVER, S-9, AROCLOR 1254 (10%), Method: PREINCUBATION) “inactive; negative”; (Test System: AMES SALMONELLA TYPHIMURIUM, Strain/Indicator: TA1538, Metabolic Activation: NONE, Method: PREINCUBATION) “inactive; negative”; (Test System: AMES SALMONELLA TYPHIMURIUM, Strain/Indicator: TA1538, Metabolic Activation: RAT, LIVER, S-9, AROCLOR 1254 (10%), Method: PREINCUBATION) “inactive; negative”; (Test System: Mouse lymphoma, Strain/Indicator: L5178Y (tk+/tk-), Metabolic Activation: None, Method: Suspension/plate) “inactive; negative”; (Test System: Mouse lymphoma, Strain/Indicator: L5178Y (tk+/tk-), Metabolic Activation: Rat, Liver, S-9, Aroclor 1254, Method: Suspension/plate) “inactive; negative”.

Turning to `O=[N+]([O-])/C(Br)=C\c1ccccc1`, the mutagenic call by setting is: (Test System: AMES SALMONELLA TYPHIMURIUM, Strain/Indicator: TA98, Metabolic Activation: HAMSTER, LIVER, S-9, AROCLOR 1254, Method: STANDARD PLATE) “inactive; negative”; under setting [7], “inactive; negative”; under setting [8], “inactive; negative”; (Test System: AMES SALMONELLA TYPHIMURIUM, Strain/Indicator: TA100, Metabolic Activation: HAMSTER, LIVER, S-9, AROCLOR 1254, Method: STANDARD PLATE) “inactive; negative”; under setting [9], “inactive; negative”; under setting [10], “inactive; negative”. For the same compound, the mutagenic call runs as follows: (Test System: AMES SALMONELLA TYPHIMURIUM, Strain/Indicator: TA1535, Metabolic Activation: HAMSTER, LIVER, S-9, AROCLOR 1254, Method: STANDARD PLATE) “inactive; negative”; under setting [11], “inactive; negative”; (Test System: AMES SALMONELLA TYPHIMURIUM, Strain/Indicator: TA1535, Metabolic Activation: RAT, LIVER, S-9, AROCLOR 1254, Method: STANDARD PLATE) “inactive; negative”; (Test System: AMES SALMONELLA TYPHIMURIUM, Strain/Indicator: TA1537, Metabolic Activation: HAMSTER, LIVER, S-9, AROCLOR 1254, Method: STANDARD PLATE) “inactive; negative”; (Test System: AMES SALMONELLA TYPHIMURIUM, Strain/Indicator: TA1537, Metabolic Activation: NONE, Method: STANDARD PLATE) “inactive; negative”; (Test System: AMES SALMONELLA TYPHIMURIUM, Strain/Indicator: TA1537, Metabolic Activation: RAT, LIVER, S-9, AROCLOR 1254, Method: STANDARD PLATE) “inactive; negative”. The mutagenic call by setting is: (Test System: AMES SALMONELLA TYPHIMURIUM, Strain/Indicator: TA1538, Metabolic Activation: HAMSTER, LIVER, S-9, AROCLOR 1254, Method: STANDARD PLATE) “inactive; negative”; under setting [12], “inactive; negative”; under setting [13], “inactive; negative”; (Test System: MOUSE LYMPHOMA, Strain/Indicator: L5178Y (TK+/TK-), Metabolic Activation: NONE, Method: SUSPENSION/PLATE) “inactive; negative. reevaluation of results: negative”; (Test System: MOUSE LYMPHOMA, Strain/Indicator: L5178Y (TK+/TK-), Metabolic Activation: RAT, LIVER, S-9, AROCLOR 1254, Method: SUSPENSION/PLATE) “inactive; negative. reevaluation of results: negative”.

With `Cn1c(N)nc2ccc3ncccc3c21`, the mutagenic call by setting is: (Test System: AMES SALMONELLA TYPHIMURIUM, Strain/Indicator: TA98, Metabolic Activation: RAT, LIVER, S-9, AROCLOR 1254, Method: PREINCUBATION) “active; positive”; (Test System: AMES SALMONELLA TYPHIMURIUM, Strain/Indicator: TA100, Metabolic Activation: RAT, LIVER, S-9, AROCLOR 1254, Method: PREINCUBATION) “active; positive”.

Take `CC1=CC(C=O)C(C=O)=C[C@@H]2CC(C)(C)C[C@H]12` (some centres not stated): the mutagenic call under setting [7] is “inactive; negative”; the mutagenic call under setting [9] was “inactive; negative”; the mutagenic call (Test System: AMES SALMONELLA TYPHIMURIUM, Strain/Indicator: TA2637, Metabolic Activation: NONE, Method: STANDARD PLATE) was “inactive; negative”; the mutagenic call (Test System: CHINESE HAMSTER V-79, Strain/Indicator: V-79/6-THIOGUANINE (HGPRT), Metabolic Activation: NONE) was “inactive; negative”.

Turning to `N=c1cc2oc3cc(N)ccc3nc-2c2ccccc12`, the mutagenic call under setting [12] is “inactive; negative” and the mutagenic call under setting [13] is “active; positive”.

As for `CCN(C=O)N=O`, the mutagenic call under setting [11] was “active; positive” and the mutagenic call (Test System: E. COLI, Strain/Indicator: WU3610, Metabolic Activation: NONE, Method: SUSPENSION/PLATE) is “active; positive”.

`CC(C)(COCC1CO1)COCC1CO1` (configuration not stated): the mutagenic call by setting is: under setting [1], “active; positive”; under setting [2], “active; positive”; under setting [3], “active; positive”; under setting [4], “active; positive”; under setting [5], “active; positive”; under setting [6], “active; positive”.

As for `c1ccc2c(c1)ccc1c3cccnc3ccc21`, the mutagenic call reads like this: under setting [8], “active; positive”; under setting [10], “active; positive”.
